The values that follow come from US9745283B2, “Uracil derivatives as AXL and c-MET kinase inhibitors” (priority 2011, dated 2017).

The experiment has as its target recombinant human baculovirus-expressed cMET (Homo sapiens (Human), UniProt P08581). The experiment in a line: C-MET Kinase Assay (HTRF KinEASE). The experiment is classed as biochemical. The following applies: average of two or more determinations; read-out: c-MET IC50. As for the experimental part:
The cMET kinase assay was performed in 384-well Fluotrac™ 200 HiBase microplates using the HTRF KinEASE™ assay described above for AXL except that the assay volume was reduced to half. Enzyme concentration was 8 ng/mL of recombinant human baculovirus-expressed cMET while the substrate concentrations were 0.1 μM and 0.02 μM for the biotinylated peptide and ATP, respectively. Instead of the Multidrop Combi, the BioRAPTR® FRD microfluidic workstation (Beckman Coulter, Brea, Calif.) was utilized for reagent additions.
Inhibition curves for compounds were generated by plotting percent control activity versus log 10 of the concentration of compound. IC50 values were calculated by nonlinear regression using the sigmoidal dose-response (variable slope) equation in GraphPad Prism as follows: y=bottom+(top−bottom)/(1+10(log IC50−x)*Hill Slope) where y is the % kinase activity at a given concentration of compound, x is the logarithm of the concentration of compound, bottom is the % of control kinase activity at the highest compound concentration tested, and top is the % of control kinase activity at the lowest compound concentration examined. The values for bottom and top were fixed at 0 and 100, respectively.
On the technique in general: In TR-FRET formats the signal depends on donor and acceptor labels being close together.

In the case of `CCn1cc(C(=O)Nc2ccc(Nc3ccnc4cc(OC)c(OC)cc34)cc2)c(=O)n(-c2ccc(F)cc2)c1=O` [Example 134, 1-Ethyl-3-(4-fluoro-phenyl)-2,4-dioxo-1,2,3,4-tetrahydro-pyrimidine-5-carboxylic acid [4-(6,7-dimethoxy-quinolin-4-ylamino)-phenyl]-amide], the IC50 was in the range of 101 to 1000 nM.
As for `COc1cc2nccc(Nc3ccc(NC(=O)c4cn(C(C)C)c(=O)n(-c5ccc(F)cc5)c4=O)cc3)c2cc1OC` [Example 135, 3-(4-Fluorophenyl)-1-isopropyl-2,4-dioxo-1,2,3,4-tetrahydropyrimidine-5-carboxylic acid [4-(6,7-dimethoxyquinolin-4-ylamino)-phenyl]-amide], the IC50 lay within 101 to 1000 nM.
As for `COc1cc2nccc(Nc3ccc(NC(=O)c4nn(C(C)C)c(=O)n(-c5ccc(F)cc5)c4=O)cc3)c2cc1OC` [Example 136, 4-(4-Fluoro-phenyl)-2-isopropyl-3,5-dioxo-2,3,4,5-tetrahydro-[1,2,4]triazine-6-carboxylic acid [4-(6,7-dimethoxy-quinolin-4-ylamino)-phenyl]-amide], the IC50 was 101 to 1000 nM.
Turning to `CCn1cc(C(=O)Nc2ccc(Sc3ccnc4cc(OC)c(OC)cc34)cc2)c(=O)n(-c2ccc(F)cc2)c1=O` [Example 137, 1-Ethyl-3-(4-fluorophenyl)-2,4-dioxo-1,2,3,4-tetrahydro-pyrimidine-5-carboxylic acid [4-(6,7-dimethoxy-quinolin-4-ylsulfanyl)-phenyl]-amide], the IC50 was 10 to 100 nM.
Next, `COc1cc2nccc(Sc3ccc(NC(=O)c4cn(C(C)C)c(=O)n(-c5ccc(F)cc5)c4=O)cc3)c2cc1OC` [Example 138, 3-(4-Fluoro-phenyl)-1-isopropyl-2,4-dioxo-1,2,3,4-tetrahydro-pyrimidine-5-carboxylic acid [4-(6,7-dimethoxy-quinolin-4-ylsulfanyl)-phenyl]-amide]: 10 to 100 nM; `COc1cc2ncnc(Oc3ccc(NC(=O)c4cn(C(C)C)c(=O)n(-c5ccc(F)cc5)c4=O)cc3)c2cc1OC` [Example 141, 3-(4-Fluoro-phenyl)-1-isopropyl-2,4-dioxo-1,2,3,4-tetrahydro-pyrimidine-5-carboxylic acid [4-(6,7-dimethoxy-quinazolin-4-yloxy)-phenyl]-amide]: 10 to 100 nM; `CCn1cc(C(=O)Nc2ccc(Oc3ncnc4cc(OC)c(OC)cc34)cc2)c(=O)n(-c2ccc(F)cc2)c1=O` [Example 142, 1-Ethyl-3-(4-fluorophenyl)-2,4-dioxo-1,2,3,4-tetrahydro-pyrimidine-5-carboxylic acid [4-(6,7-dimethoxy-quinazolin-4-yloxy)-phenyl]-amide]: 10 to 100 nM.
On to `CCn1cc(C(=O)Nc2ccc(Oc3ccnc4cc(OC)c(OC)cc34)c(C)c2)c(=O)n(-c2ccc(F)cc2)c1=O` [Example 148, 1-Ethyl-3-(4-fluoro-phenyl)-2,4-dioxo-1,2,3,4-tetrahydro-pyrimidine-5-carboxylic acid [4-(6,7-dimethoxy-quinolin-4-yloxy)-3-methyl-phenyl]-amide], for which the IC50 is 10 to 100 nM.
On to `CCn1cc(C(=O)Nc2ccc(Oc3ccnc4cc(OC)c(OC)cc34)c(Cl)c2)c(=O)n(-c2ccc(F)cc2)c1=O` [Example 152], for which the IC50 is 10 to 100 nM.
For `COc1cc2nccc(Oc3ccc(NC(=O)c4cn(C(C)C)c(=O)n(-c5ccc(F)cc5)c4=O)c(N(C)C)c3)c2cc1OC` [Example 154, 3-(4-Fluoro-phenyl)-1-isopropyl-2,4-dioxo-1,2,3,4-tetrahydro-pyrimidine-5-carboxylic acid [4-(6,7-dimethoxy-quinolin-4-yloxy)-2-dimethylamino-phenyl]-amide], the IC50 lay within 101 to 1000 nM.
For the compound `CCn1cc(C(=O)Nc2ccc(Oc3ccnc4cc(OC)c(OC)cc34)c(C(C)C)c2)c(=O)n(-c2ccc(F)cc2)c1=O` [Example 155, 1-Ethyl-3-(4-fluoro-phenyl)-2,4-dioxo-1,2,3,4-tetrahydro-pyrimidine-5-carboxylic acid [4-(6,7-dimethoxy-quinolin-4-yloxy)-3-isopropyl-phenyl]-amide], the IC50 was 10 to 100 nM.
As for `COc1cc2nccc(Oc3ccc(NC(=O)c4cn(C(C)C)c(=O)n(-c5ccc(F)cc5)c4=O)cc3C(C)C)c2cc1OC` [Example 156, 3-(4-Fluoro-phenyl)-1-isopropyl-2,4-dioxo-1,2,3,4-tetrahydro-pyrimidine-5-carboxylic acid [4-(6,7-dimethoxy-quinolin-4-yloxy)-3-isopropyl-phenyl]-amide], the IC50 was 10 to 100 nM.
Next, `CCn1cc(C(=O)Nc2ccc(Oc3ccnc4cc(OC)c(OC)cc34)c(C)c2C)c(=O)n(-c2ccc(F)cc2)c1=O` [Example 157, 1-Ethyl-3-(4-fluoro-phenyl)-2,4-dioxo-1,2,3,4-tetrahydro-pyrimidine-5-carboxylic acid [4-(6,7-dimethoxy-quinolin-4-yloxy)-2,3-dimethyl-phenyl]-amide]: 101 to 1000 nM; `COc1cc2nccc(Oc3ccc(NC(=O)c4cn(C(C)C)c(=O)n(-c5ccc(F)cc5)c4=O)c(C)c3C)c2cc1OC` [Example 158, 3-(4-Fluoro-phenyl)-1-isopropyl-2,4-dioxo-1,2,3,4-tetrahydro-pyrimidine-5-carboxylic acid [4-(6,7-dimethoxy-quinolin-4-yloxy)-2,3-dimethyl-phenyl]-amide]: 101 to 1000 nM.
As for `COc1cc2nccc(Oc3ccc(NC(=O)c4cn(C(C)C)c(=O)n(-c5ccc(F)cc5)c4=O)cc3C(F)(F)F)c2cc1OC` [Example 160, 3-(4-Fluoro-phenyl)-1-isopropyl-2,4-dioxo-1,2,3,4-tetrahydro-pyrimidine-5-carboxylic acid [4-(6,7-dimethoxy-quinolin-4-yloxy)-3-trifluoromethyl-phenyl]-amide], the IC50 fell in the range of 101 to 1000 nM.
`CCn1cc(C(=O)Nc2cc(C)c(Oc3ccnc4cc(OC)c(OC)cc34)c(C)c2)c(=O)n(-c2ccc(F)cc2)c1=O` [Example 161, 1-Ethyl-3-(4-fluoro-phenyl)-2,4-dioxo-1,2,3,4-tetrahydro-pyrimidine-5-carboxylic acid [4-(6,7-dimethoxy-quinolin-4-yloxy)-3,5-dimethyl-phenyl]-amide]: the IC50 was in the range of 10 to 100 nM.
Next, `COc1cc2nccc(Oc3c(C)cc(NC(=O)c4cn(C(C)C)c(=O)n(-c5ccc(F)cc5)c4=O)cc3C)c2cc1OC` [Example 162, 3-(4-Fluoro-phenyl)-1-isopropyl-2,4-dioxo-1,2,3,4-tetrahydro-pyrimidine-5-carboxylic acid [4-(6,7-dimethoxy-quinolin-4-yloxy)-3,5-dimethyl-phenyl]-amide]: 10 to 100 nM.
Next, `COc1cc2nccc(Oc3ccc(NC(=O)c4cn(C(C)C)c(=O)n(-c5ccc(F)cc5)c4=O)cc3C)c2cc1OC` [Example 163, 3-(4-Fluoro-phenyl)-1-isopropyl-2,4-dioxo-1,2,3,4-tetrahydro-pyrimidine-5-carboxylic acid [4-(6,7-dimethoxy-quinolin-4-yloxy)-3-methyl-phenyl]-amide]: 10 to 100 nM; `CCn1nc(C(=O)Nc2ccc(Oc3ccnc4cc(OC)c(OC)cc34)cn2)c(=O)n(-c2ccc(F)cc2)c1=O` [Example 164, 2-Ethyl-4-(4-fluoro-phenyl)-3,5-dioxo-2,3,4,5-tetrahydro-1,2,4-triazine-6-carboxylic acid [5-(6,7-dimethoxy-quinolin-4-yloxy)-pyridin-2-yl]-amide]: 10 to 100 nM; `COc1cc(Oc2ccnc3cc(OC)c(OC)cc23)ccc1NC(=O)c1nn(C(C)C)c(=O)n(-c2ccc(F)cc2)c1=O` [Example 166, 4-(4-Fluoro-phenyl)-2-isopropyl-3,5-dioxo-2,3,4,5-tetrahydro-1,2,4-triazine-6-carboxylic acid [4-(6,7-dimethoxy-quinolin-4-yloxy)-2-methoxy-phenyl]-amide]: 101 to 1000 nM.
Turning to `CCn1nc(C(=O)Nc2ccc(Oc3ccnc4cc(OC)c(OC)cc34)c(C(F)(F)F)c2)c(=O)n(-c2ccc(F)cc2)c1=O` [Example 169, 2-Ethyl-4-(4-fluoro-phenyl)-3,5-dioxo-2,3,4,5-tetrahydro-1,2,4-triazine-6-carboxylic acid [4-(6,7-dimethoxy-quinolin-4-yloxy)-3-trifluoromethyl-phenyl]-amide], the IC50 is below 10 nM.
Next, `CCn1nc(C(=O)Nc2ccc(Oc3ccnc4cc(OC)c(OC)cc34)cc2OC)c(=O)n(-c2ccc(F)cc2)c1=O` [Example 170, 2-Ethyl-4-(4-fluoro-phenyl)-3,5-dioxo-2,3,4,5-tetrahydro-1,2,4-triazine-6-carboxylic acid [4-(6,7-dimethoxy-quinolin-4-yloxy)-2-methoxy-phenyl]-amide]: 10 to 100 nM.

One may read the IC50 as the point on the concentration scale where inhibition reaches its midpoint.
